According to paper PMC9716151, “Synthesis, antimalarial, antileishmanial evaluation, and molecular docking study of some 3-aryl-2-styryl substituted-4(3H)-quinazolinone derivatives” (BMC Chemistry, 2022):
In brackets after ≈: the same amount, converted by molar mass. Read-outs that look alike come from different tables or passages of the source.

How the values were obtained:
[1] = test system: Plasmodium berghei ANKA strain; assay: four-day standard suppressive test in infected mice; format: in vivo, Plasmodium berghei (Swiss albino mice); settings: for % Parasitemia: smear on 5th day, mean ± SD; for inhibition in vivo at 48.46 µmol/kg: Plasmodium berghei, 96 h, read-out: % Suppression
Excerpt: In the present study, the in vivo antimalarial activities of the synthesized compounds were investigated using a mouse model which is ideal to elucidate the prodrug effects of the target compounds triggered by metabolic activation and eradication of infection due to the potential involvement of the immune system. To achieve a steady state infection against the experimental animals, Plasmodium berghei ANKA strain served as a parasite in the experiment and the effects of the target compounds was assessed by the standard four-day suppressive test (often employed to evaluate early infections) in terms of percent inhibition of parasitemia which is recognized as most trustworthy parameter in vivo antimalarial studies. Herein, the standard antimalarial drug chloroquine phosphate (CQ) and equimolar amounts (48.46 µmol/Kg) of the target 3-aryl-2-styry substituted-4(3H)-quinazolinone derivatives were administered orally and the % suppression, parasitemia level, and the survival time of mice were compared against mice treated with a formulation containing a solution of 7% Tween 80, and 3% ethanol in distilled water (control group).
Swiss albino male mice of weight 20–32 g and age 6–8 weeks were used for the antimalarial activity and acute toxicity tests. Plasmodium berghei ANKA strain is used to infect the mice for a four-day suppressive test, were obtained from Biomedical Laboratory, Department of Biology, Faculty of Science, AAU. Leishmania donovani isolate used in this study was obtained from the Leishmania Diagnosis and Research Laboratory (LDRL) culture bank, School of Medicine, AAU.
The antimalarial activities of the target compounds were assessed by the four-day standard suppressive test against mice infected with Plasmodium berghei. The mice were acclimatized to the experimental conditions in the animal house of Biomedical Laboratory, Addis Ababa University, Faculty of Science, Department of Biology, for seven days prior to the in vivo antimalarial activity testing. In due course, the mice were subjected to live in standard cages with a pelleted diet and water. To trigger a steadily rising infection in mice, blood infected with Plasmodium berghei ANKA strain (approximately 20–30% level of parasitemia) was collected from a donor mice using a syringe supplemented with 0.5% trisodium citrate and diluted in physiological saline to […]. Then, 0.2 mL of inoculum (supposed to have about 2 × 10^7 parasites) was injected into each mouse through the intraperitoneal route to achieve the desired level of infection within a short period of time. After 2 h of post-infection, the mice were carefully weighed using a digital balance and randomly assigned into nine groups where each group contain five mice. Of which, mice assigned as a negative control (Group 1) subjected to the formulation composed of 7% Tween 80, and 3% ethanol in distilled water (2 mL/100 g). In addition, mice which belong to the positive control (Group 2) was treated with 25 mg/kg/day (0.04846 mmol/kg/day) of chloroquine phosphate (CQ). The remaining groups (3–9) were subjected to oral treatment with equimolar amounts of the respective target compounds for four consecutive days. Finally, a blood smear was taken from the tail of the mice in the 5th day (24 h after the last dose), air-dried, fixed with absolute methanol and treated with 6% Giemsa stain. The mean parasitemia level of each group (control and treatment groups) was computed microscopically by counting the number of erythrocytes in four fields (⁓100 erythrocytes per field).

[2] = test system: Leishmania donovani promastigotes (clinical isolate); assay: in vitro antipromastigote activity test (AlamarBlue/resazurin); format: cell-based; settings: for IC50: Leishmania donovani
Protocol: The antipromastigote activities of the synthesized compounds and the existing antileishmanial drugs (miltefosine and amphotericin B deoxycholate) were assessed using the clinical isolate of the Leishmania donovani strain, which is known to cause VL worldwide. The soluble, stable and non-toxic fluorescence dye, AlamarBlue® (resazurin) (Trek Diagnostic Systems, Inc., Cleveland, OH, USA) was used to quantitatively determine the viability of Leishmania donovani and compute the IC50 value of target compounds and the reference drugs. Only metabolically active cells can reduce resazurin and convert into fluorescent resorufin. Thus, the fluorescent intensity of resorufin is directly correlated to the number of viable Leishmania donovani cells. […] Inspired by its promising antileishmanial outcome, (E)-2-(4-nitrostyryl)-3-phenylquinazolin-4(3H)-one (6) was subjected to molecular docking study by fitting it in Lm-PTR1 active site to gain an insight about the types of interactions between the simulated enzyme and itself.
RPMI-1640, 10% heat-inactivated fetal calf serum (HIFCS), 1% penicillin–streptomycin, and 1% L-glutamine were supplied to make a complete culture medium. The Leishmania donovani isolate was grown first on Novy-MacNeal-Nicolle (NNN) medium and then in tissue-culture flasks containing RPMI 1640 medium supplemented with 10% HIFCS and 1% 100 IU penicillin/mL-100 µg/mL streptomycin solution at 22 ℃ for promastigotes.
Stock solutions of 10 mg/mL of the synthesized compounds were prepared by dissolving each compound in DMSO for the antileishmanial activity testing. Stock solutions were diluted using complete RPMI to obtain aliquots of 10 µg/mL. Then, three-fold serial dilution with complete RPMI gave the final six working concentrations (10, 3.33, 1.11, 0.37, 0.12, and 0.04 µg/mL) of each of the synthesized compounds. Amphotericin B deoxycholate and miltefosine, which were used as positive controls for the comparison of the antileishmanial activities of the test compounds, were also made in three-fold serial dilutions. All the prepared drugs were stored at − 20 °C and retrieved only during use.
Prior to the in vitro antipromastigote testing, serial concentrations of the target compounds were prepared by implementing three-fold dilutions. Then, in a 96-well microtiter plate, 100 µl of each of the three-fold serial dilutions of the target compounds were added in triplicate wells. Then 100 µl of Leishmania donovani suspension containing 3.0 × 10^6 promastigotes per milliliter were added in duplicates. In this experiment, the media and DMSO served as a negative control. Moreover, the concentration of DMSO was maintained below 1% of the target compound preparation to avoid the potential growth inhibition and interference effect of DMSO in the entire antipromastigote assay. Properly labelled plates which belong to the negative-control group, positive-control groups (treated with miltefosine and amphotericin B deoxycholate) and target compounds were then kept in a humidified atmosphere at 22 ℃ under 5% CO2 […]. To determine the viability Leishmania donovani isolates after the respective treatment, 10 µL of fluorochrome AlamarBlue® solution prepared by dissolving 12.5 mg resazurin in 100 mL of distilled water was added to each well and incubated for 4 h. Then, the fluorescence intensity of each well was determined using Victor3 Multilabel Counter (PerkinElmer, Waltham, MA, USA), at 530 nm and 590 nm, excitation and emission wavelengths, respectively. The IC50 values of the negative-control, positive-control groups and test-groups were determined from sigmoidal dose-response curves using GraphPad Prism 5.0 software (GraphPad Software, Inc., San Diego, CA, USA).

[3] = test system: male Swiss albino mice; assay: in vivo oral acute toxicity test; settings: for mortality in mice: oral 50, 100, 200 and 300 mg/kg, within 24 h and entire study period (14 days); for visible signs of overt toxicity: oral up to 300 mg/kg, physical and behavioral observations, 14 days
Protocol: For this purpose, the mice were randomly allocated into six groups each containing six mice. The first five groups of mice (Group 1–5) received each target compound solubilized using 1% gum acacia at a dose of 10, 50, 100, 200 and 300 mg/kg, respectively. The mice in last group (group 6, served as a negative control) were orally treated with the solvent used to dissolve the target compounds (1% gum acacia) at a maximum dose of 1 mL/100 gm of body weight. Each mouse was then monitored for gross changes such as salivation, loss of appetite, lacrimation, hair erection, diarrhea, convulsions, death, and other signs of overt toxicity.

[4] = test system: Leishmania major; design: method as in PMID 20235747; settings: cited from earlier work
[5] = mice infected with P. berghei ANKA, oral, 48.46 µmol/kg for four days (CQ 25 mg/kg)
[6] = read-out: IC50 values, antipromastigote activity, L. donovani promastigotes, 22 °C, AlamarBlue fluorescence
[7] = po, mice infected with P. berghei ANKA, oral, 48.46 µmol/kg for four days (CQ 25 mg/kg), versus negative control
[8] = L. donovani promastigotes, 22 °C, AlamarBlue fluorescence
[9] = L. donovani promastigotes, 22 °C, AlamarBlue fluorescence, read-out: IC50 values, antipromastigote activity

In the case of `CC(=O)Oc1ccc(/C=C/c2nc3ccccc3c(=O)n2-c2ccccc2C)cc1` [Compound 8, 4-((1E)-2-(3,4-dihydro-4-oxo-3-o-tolylquinazolin-2-yl)vinyl)phenyl acetate], the Mean survival time [1, 5] is reported as 9.4 ± 0.37 days, the “% Parasitemia” value [1, 5] is reported as 19.57 ± 0.77% and the IC50 [2, 6] is reported as 3.33 ± 0.126 µg/mL. For the same compound, the mortality in mice [3] was “none of the compounds caused mortality” and the “visible signs of overt toxicity” value [3] was “no visible signs of overt toxicity”.
For `O=c1c2ccccc2nc(/C=C/c2ccc([N+](=O)[O-])cc2)n1-c1ccccc1` [Compound 6, (E)-2-(4-nitrostyryl)-3-phenylquinazolin-4(3H)-one], the inhibition in vivo at 48.46 µmol/kg [1, 7] was less than 50%, the Mean survival time [1, 5] was 6.5 ± 0.3 days and the “% Parasitemia” value [1, 5] was 39.22 ± 0.7%. For the same compound, the “IC50 values, antipromastigote activity” value [2, 8] was 0.021 ± 0.008 µg/mL (≈ 0.0569 µM), the IC50 [2, 6] was 0.0212 µg/mL (≈ 0.0574 µM) and the mortality in mice [3] was “none of the compounds caused mortality”. For the same compound, the “visible signs of overt toxicity” value [3] was “no visible signs of overt toxicity”.
In the case of `COc1cc(/C=C/c2nc3ccccc3c(=O)n2-c2ccc(C)cc2)ccc1O` [Compound 13, (E)-2-(4-hydroxy-3-methoxystyryl)-3-p-tolylquinazolin-4(3H)-one], the inhibition in vivo at 48.46 µmol/kg [1, 7] is reported as greater than 50%, the Mean survival time [1, 5] is reported as 7.9 ± 0.3 days and the “% Parasitemia” value [1, 5] is reported as 24.13 ± 0.29%. The IC50 [2, 6] was 2.27 ± 0.214 µg/mL (≈ 5.89 µM).
In the case of `Cc1ccccc1-n1c(/C=C/c2ccc(O)cc2)nc2ccccc2c1=O` [Compound 11, (E)-2-(4-hydroxystyryl)-3-o-tolylquinazolin-4(3H)-one], the inhibition in vivo at 48.46 µmol/kg [1, 7] is reported as greater than 50%, the Mean survival time [1, 5] is reported as 7.3 ± 0.54 days and the “% Parasitemia” value [1, 5] is reported as 25.27 ± 0.76%. It also gave an IC50 [2, 6] of 0.185 ± 0.026 µg/mL (≈ 0.522 µM).
With `CCCCCCCCCCCCCCCCOP(=O)([O-])OCC[N+](C)(C)C` [Miltefosine, hexadecylphosphocholine, reference compound] the “IC50 values, antipromastigote activity” value [2, 8] was 3.191 ± 0.194 µg/mL (≈ 7.83 µM) and the IC50 [2, 9] was 3.19 µg/mL (≈ 7.83 µM).
For `COc1cc(/C=C/c2nc3ccccc3c(=O)n2-c2ccc(C)cc2)ccc1OC(C)=O` [Compound 10, 4-((1E)-2-(3,4-dihydro-4-oxo-3-p-tolylquinazolin-2-yl)vinyl)-2-methoxyphenyl acetate], the Mean survival time [1, 5] was 9.8 ± 0.24 days, the “% Parasitemia” value [1, 5] was 16.85 ± 0.39% and the IC50 [2, 9] was 0.196 ± 0.042 µg/mL. The mortality in mice [3] was “none of the compounds caused mortality” and the “visible signs of overt toxicity” value [3] was “no visible signs of overt toxicity”.
With `Cc1ccc(-n2c(/C=C/c3ccc(O)cc3)nc3ccccc3c2=O)cc1` [Compound 12, (E)-2-(4-hydroxystyryl)-3-p-tolylquinazolin-4(3H)-one] the inhibition in vivo at 48.46 µmol/kg [1, 7] was greater than 50%, the Mean survival time [1, 5] was 7.6 ± 1.12 days and the “% Parasitemia” value [1, 5] was 32 ± 0.5%. It also gave an IC50 [2, 6] of 1.84 ± 0.168 µg/mL (≈ 5.2 µM).
For `C[C@@H]1[C@H](O)[C@@H](C)/C=C/C=C/C=C/C=C/C=C/C=C/C=C/[C@H](O[C@@H]2O[C@H](C)[C@@H](O)[C@H](N)[C@@H]2O)C[C@@H]2O[C@](O)(C[C@@H](O)C[C@@H](O)[C@H](O)CC[C@@H](O)C[C@@H](O)CC(=O)O[C@H]1C)C[C@H](O)[C@H]2C(=O)O` [Amphotericin B, amphotericin B deoxycholate, reference compound], the IC50 [2, 9] was 0.046 ± 0.009 µg/mL (≈ 0.0498 µM).
With `CCN(CC)CCCC(C)Nc1ccnc2cc(Cl)ccc12` (stereo not drawn) [CQ, chloroquine phosphate, reference compound] the inhibition in vivo at 48.46 µmol/kg [1] was 100% and the “% Parasitemia” value [1, 5] was 0%.
With `Cc1ccccc1-n1c(/C=C/c2ccc(Cl)cc2)nc2ccccc2c1=O` [Compound 7, (E)-2-(4-chlorostyryl)-3-o-tolylquinazolin-4(3H)-one] the inhibition in vivo at 48.46 µmol/kg [1, 7] was less than 50%, the Mean survival time [1, 5] was 6.9 ± 0.5 days and the “% Parasitemia” value [1, 5] was 35.69 ± 0.69%. It also gave an IC50 [2, 6] of 3.25 ± 0.282 µg/mL (≈ 8.71 µM).
In the case of `O=c1c2ccccc2nc(-c2ccccc2)n1Cc1ccccc1` [III], the “IC50, in vitro antileishmanial activity” value [4] is given as 48.91 µg/mL (≈ 157 µM).
